Results on two molecules are retold here after patent publication US7659292B2 (priority 2001, dated 2010).

Where two headings read alike, the source gives them in different places.

In this experiment the test system is Phytophthora infestans. It counts as in vivo. The following applies: for Efficacy (obs.)/ %: percentage disease control relative to untreated plants; for Rating: potato plants, spray 200 l/ha, inoculated 24 hours after treatment, degree of infestation.

`CCCOC(=O)NCCCN(C)C` [Compound (II), propyl 3-(dimethylamino)propylcarbamate]: for the setting “400 g/ha”, the “Efficacy (obs.)/ %” value amounted to 0% and the Rating is recorded as 8.3. Further, under “600 g/ha”, the “Efficacy (obs.)/ %” value came out at 18% and the Rating amounted to 6.8.
On to `O=C(NCc1ncc(C(F)(F)F)cc1Cl)c1c(Cl)cccc1Cl` [Compound (Ia), 2,6-dichloro-N-{[3-chloro-5-(trifluoromethyl)-2-pyridinyl]methyl}benzamide], for which, where the note is “5 g/ha”, the “Efficacy (obs.)/ %” value is recorded as 48% and the Rating was 4.3. In addition, for the setting “25 g/ha”, the “Efficacy (obs.)/ %” value was determined as 60% and the Rating was found to be 3.3.
